# According to US9273033B2, “Substituted pyridone derivatives as PDE10 inhibitors” (Merck Sharp & Dohme Corp., priority 2012, dated 2016):
# Target: human PDE10A2 (Homo sapiens (Human), UniProt Q9Y233)
# Assay: PDE10 fluorescence polarization (IMAP FP) inhibition assay
# Format: biochemical
# Conditions: human PDE10A2, FAM-labeled cAMP substrate, read-out: PDE10A Ki
# Procedure, shortened: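 Cytoplasmic lysate of AD293 cells transiently expressing human PDE10A2 (diluted to ~20% substrate conversion) incubated 30 min at room temperature with 50 nM FAM-cAMP in Tris pH 7.2 buffer with MgCl2, DTT. Activity read by IMAP fluorescence polarization. 0% inhibition set with 1% DMSO, 100% with reference PDE10 inhibitor.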
# human PDE10A2, sequence (Q9Y233 267-1055): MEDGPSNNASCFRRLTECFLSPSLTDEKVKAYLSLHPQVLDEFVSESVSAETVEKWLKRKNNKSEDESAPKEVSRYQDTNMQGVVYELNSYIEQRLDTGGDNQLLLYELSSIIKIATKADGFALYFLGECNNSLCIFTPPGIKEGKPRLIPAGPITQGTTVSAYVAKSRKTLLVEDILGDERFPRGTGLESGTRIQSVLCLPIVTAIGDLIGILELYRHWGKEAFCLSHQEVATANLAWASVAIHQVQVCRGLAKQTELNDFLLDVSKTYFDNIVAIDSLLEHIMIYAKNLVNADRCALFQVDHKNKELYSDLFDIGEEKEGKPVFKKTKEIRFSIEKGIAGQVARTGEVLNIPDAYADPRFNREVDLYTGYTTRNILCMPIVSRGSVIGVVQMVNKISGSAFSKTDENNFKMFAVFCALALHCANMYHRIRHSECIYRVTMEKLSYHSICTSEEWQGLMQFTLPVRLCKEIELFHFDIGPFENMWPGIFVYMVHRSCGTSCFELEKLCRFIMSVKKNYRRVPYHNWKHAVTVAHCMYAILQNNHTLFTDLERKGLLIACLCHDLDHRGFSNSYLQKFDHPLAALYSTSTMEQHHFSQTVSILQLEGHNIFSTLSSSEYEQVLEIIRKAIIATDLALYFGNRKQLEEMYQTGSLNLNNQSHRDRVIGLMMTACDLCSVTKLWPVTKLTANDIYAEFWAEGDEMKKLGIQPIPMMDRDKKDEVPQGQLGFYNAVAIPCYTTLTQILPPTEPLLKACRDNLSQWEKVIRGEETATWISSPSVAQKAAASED
row,Compound,Ki [nM]
1,"COCCn1ccc(-c2cnc(C)nc2OC[C@H]2C[C@@H]2c2ccc(OC)cn2)cc1=O [Example 118, 1-(2-methoxyethyl)-4-(4-(((1S,2S)-2-(5-methoxypyridin-2-yl)cyclopropyl)methoxy)-2-methylpyrimidin-5-yl)pyridin-2(1H)-one]",0.553
2,"Cc1ccc([C@H]2C[C@@H]2COc2nc(C)ncc2-c2ccn(CCC#N)c(=O)c2)nc1 [Example 119, 3-(4-(2-methyl-4-(((1S,2S)-2-(5-methylpyridin-2-yl)cyclopropyl)methoxy)pyrimidin-5-yl)-2-oxopyridin-1(2H)-yl)propanenitrile]",1.58
3,"Cc1ccc([C@H]2C[C@@H]2COc2nc(C)ncc2-c2ccn(CC#N)c(=O)c2)nc1 [Example 120, 2-(4-(2-methyl-4-(((1S,2S)-2-(5-methylpyridin-2-yl)cyclopropyl)methoxy)pyrimidin-5-yl)-2-oxopyridin-1(2H)-yl)acetonitrile]",1.06
4,"COc1ccc([C@H]2C[C@@H]2COc2nc(C)ncc2-c2ccn(CC(F)(F)F)c(=O)c2)nc1 [Example 121, 4-(4-(((1S,2S)-2-(5-methoxypyridin-2-yl)cyclopropyl)methoxy)-2-methylpyrimidin-5-yl)-1-(2,2,2-trifluoroethyl)pyridin-2(1H)-one]",0.299
5,"C=CCn1ccc(-c2cnc(C)nc2OC[C@H]2C[C@@H]2c2ccc(OC)cn2)cc1=O [Example 122, 1-allyl-4-(4-(((1S,2S)-2-(5-methoxypyridin-2-yl)cyclopropyl)methoxy)-2-methylpyrimidin-5-yl)pyridin-2(1H)-one]",0.458
6,"C=CCn1ccc(-c2cnc(C)nc2OC[C@H]2C[C@@H]2c2ccc(C)cn2)cc1=O [Example 123, 1-allyl-4-(2-methyl-4-(((1S,2S)-2-(5-methylpyridin-2-yl)cyclopropyl)methoxy)pyrimidin-5-yl)pyridin-2(1H)-one]",0.508
7,"COC(=O)Cn1ccc(-c2cnc(C)nc2OC[C@H]2C[C@@H]2c2ccc(OC)cn2)cc1=O [Example 124, methyl 2-(4-(4-(((1S,2S)-2-(5-methoxypyridin-2-yl)cyclopropyl)methoxy)-2-methylpyrimidin-5-yl)-2-oxopyridin-1(2H)-yl)acetate]",0.284
8,"[2H]C([2H])([2H])n1ccc(-c2cnc(C)nc2OC[C@H]2C[C@@H]2c2ccc(C)cn2)cc1=O [Example 125, 1-methyl-4-(2-methyl-4-(((1S,2S)-2-(5-methylpyridin-2-yl)cyclopropyl)methoxy)pyrimidin-5-yl)pyridin-2(1H)-one]",1.66
9,"Cc1ccc([C@H]2C[C@@H]2COc2nc(C)ncc2-c2ccn(CCO)c(=O)c2)nc1 [Example 126, 1-(2-hydroxyethyl)-4-(2-methyl-4-(((1S,2S)-2-(5-methylpyridin-2-yl)cyclopropyl)methoxy)pyrimidin-5-yr)pyridin-2(1H)-one]",1.01
10,"COc1ccc([C@H]2C[C@@H]2COc2nc(C)ncc2-c2ccn(CCO)c(=O)c2)nc1 [Example 127, 1-(2-hydroxyethyl)-4-(4-(((1S,2S)-2-(5-methoxypyridin-2-yl)cyclopropyl)methoxy)-2-methylpyrimidin-5-yl)pyridin-2(1H)-one]",0.64
11,"COc1ccc([C@H]2C[C@@H]2COc2nc(C)ncc2-c2ccn(C)c(=O)c2)nc1 [Example 128, 4-(4-(((1S,2S)-2-(5-methoxypyridin-2-yl)cyclopropyl)methoxy)-2-methylpyrimidin-5-yl)-1-methylpyridin-2(1H)-one]",1.54
12,"COC(=O)Cn1ccc(-c2cnc(C)nc2OC[C@H]2C[C@@H]2c2ccc(C)cn2)cc1=O [Example 129, methyl 2-(4-(2-methyl-4-(((1S,2S)-2-(5-methylpyridin-2-yl)cyclopropyl)methoxy)pyrimidin-5-yl)-2-oxopyridin-1(2H)-yl)acetate]",0.394
13,"COc1ccc([C@H]2C[C@@H]2COc2nc(C)ncc2-c2ccn(CC(F)F)c(=O)c2)nc1 [Example 130, 1-(2,2-difluoroethyl)-4-(4-(((1S,2S)-2-(5-methoxypyridin-2-yl)cyclopropyl)methoxy)-2-methylpyrimidin-5-yl)pyridin-2(1H)-one]",0.386
14,"Cc1ncc(-c2cc(=O)n(C)cc2C)c(OC[C@H]2C[C@@H]2c2ccc3c(n2)CCC3)n1 [Example 131, 4-(4-(((1S,2S)-2-(6,7-dihydro-5H-cyclopenta[b]pyridin-2-yl)cyclopropyl)methoxy)-2-methylpyrimidin-5-yl)-l,5-dimethylpyridin-2(1H)-one]",0.033
15,"COc1ccc([C@H]2C[C@@H]2COc2nc(C)ncc2-c2cc(=O)n(C)cc2C2CC2)nc1 [Example 132, 5-cyclopropyl-4-(4-(((1S,2S)-2-(5-methoxypyridin-2-yl)cyclopropyl)methoxy)-2-methylpyrimidin-5-yl)-1-methylpyridin-2(1H)-one]",0.583
16,"Cc1ccc([C@H]2C[C@@H]2COc2nc(C)ncc2-c2ccn(C3CC3)c(=O)c2)nc1 [Example 133, 1-cyclopropyl-4-(2-methyl-4-(((1S,2S)-2-(5-methylpyridin-2-yl)cyclopropyl)methoxy)pyrimidin-5-yl)pyridin-2(1H)-one]",0.935
17,"COc1ccc([C@H]2C[C@@H]2COc2nc(C)ncc2-c2ccn(CC(=O)O)c(=O)c2)nc1 [Example 134, 2-(4-(4-(((1S,2S)-2-(5-methoxypyridin-2-yl)cyclopropyl)methoxy)-2-methylpyrimidin-5-yl)-2-oxopyridin-1(2H)-yl)acetic acid]",9.85
18,"Cc1ccc([C@H]2C[C@@H]2COc2nc(C)ncc2-c2cnn(C)c(=O)c2)nc1 [Example 135, 2-methyl-5-(2-methyl-4-(((1S,2S)-2-(5-methylpyridin-2-yl)cyclopropyl)methoxy)pyrimidin-5-yl)pyridazin-3(2H)-one]",6.31
19,"COc1ccc([C@H]2C[C@@H]2COc2nc(C)ncc2-c2cnn(C)c(=O)c2)nc1 [Example 136, 5-(4-(((1S,2S)-2-(5-methoxypyridin-2-yl)cyclopropyl)methoxy)-2-methylpyrimidin-5-yl)-2-methylpyridazin-3(2H)-one]",5.74
20,"COc1ccc([C@H]2C[C@@H]2COc2nc(C)ncc2-c2cnn(C)c(=O)c2Cl)nc1 [Example 137, 4-chloro-5-(4-(((1S,2S)-2-(5-methoxypyridin-2-yl)cyclopropyl)methoxy)-2-methylpyrimidin-5-yl)-2-methylpyridazin-3(2H)-one]",0.728
21,"COc1ccc([C@H]2C[C@@H]2COc2nc(C)ncc2-c2cc(=O)n(C)nc2OC)nc1 [Example 138, 6-methoxy-5-(4-(((1S,2S)-2-(5-methoxypyridin-2-yl)cyclopropyl)methoxy)-2-methylpyrimidin-5-yl)-2-methylpyridazin-3(2H)-one]",2.16
22,"COc1ccc([C@H]2C[C@@H]2COc2nc(C)ncc2-c2cc(=O)n(C)nc2O)nc1 [Example 139, 6-hydroxy-5-(4-(((1S,2S)-2-(5-methoxypyridin-2-yl)cyclopropyl)methoxy)-2-methylpyrimidin-5-yl)-2-methylpyridazin-3(2H)-one]",21.2
23,"Cc1ncc(-c2cc(=O)n(C)cn2)c(OC[C@H]2C[C@@H]2c2ccc3ccccc3n2)n1 [Example 140, 3-methyl-6-(2-methyl-4-(((1S,2S)-2-(quinolin-2-yl)cyclopropyl)methoxy)pyrimidin-5-yl)pyrimidin-4(3H)-one]",0.228
24,"Cc1ccc([C@H]2C[C@@H]2COc2nc(C)ncc2-c2cc(=O)n(C)cn2)nc1 [Example 141, 3-methyl-6-(2-methyl-4-(((1S,2S)-2-(5-methylpyridin-2-yl)cyclopropyl)methoxy)pyrimidin-5-yl)pyrimidin-4(3H)-one]",5.46
25,"COc1ccc([C@H]2C[C@@H]2COc2nc(C)ncc2-c2cc(=O)n(C)cn2)nc1 [Example 142, 6-(4-(((1S,2S)-2-(5-methoxypyridin-2-yl)cyclopropyl)methoxy)-2-methylpyrimidin-5-yl)-3-methylpyrimidin-4(3H)-one]",6.04
